Literature values, collected in publication PMC3215888 (Cancer Chemotherapy and Pharmacology, 2011).

System: Aurora kinase A mutation (T217D)
Settings: cited from earlier work

SMILES: O=C(O)c1ccc(Nc2ncc3c(n2)-c2ccc(Cl)cc2C(c2c(F)cccc2F)=NC3)cc1 [MLN8054, reference compound]
- inhibition of Aurora kinase A T217D mutant: impervious
